Experimental data as given in patent publication US20210353579A1, “HIGH PENETRATION COMPOSITIONS AND USES THEREOF” (Techfields Pharma Co., Ltd., priority 2006, published 2021).
Values after ≈ are worked out from the molar mass of the structure shown. Read-outs that look alike come from different tables or passages of the source.

What was measured:
[1] = Plasma levels after transdermal administration to hairless mice; format: in vivo; conditions: for t, time to peak plasma level after parent compound: parent compound administered (time when taken orally); for Peak plasma concentration of parent compound after prodrug compound / t, time to peak plasma level of parent compound after prodrug compound: transdermal, 20% in 1 mL isopropanol
Experimental: Tested compounds (20% solution or suspension in 1 mL isopropanol) are administered transdermally to the skin of intact hairless mice. The plasma levels of the parent compounds are determined by HPLC.

[2] = as above; conditions: mouse, in vivo, po
[3] = test system: human skin tissue; conditions: pH 7.4
[4] = test system: human skin tissue; experiment: In vitro penetration rate through human skin, modified Franz cells; conditions: Franz cell; for In vitro penetration rate (apparent flux), prodrug compounds: 20% solution in 0.2 M phosphate buffer pH 7.4, human skin
[5] = in vivo; conditions: rat
Experimental: (§1) The acute toxicity of the prodrug compounds and parent compounds are measured by LD50 of rat.

[6] = test system: Human breast cancer cells (BCAP-37); experiment: Human breast cancer xenograft in nude mice, topical
Experimental: Human breast cancer cells (BCAP-37, 2-3 mm^3 of tumor tissue was used in each mouse) are subcutaneously xenografted into the front leg of nude mice (BALB, 12 groups, 7 mice each group). […] Then 30 μl of 5% (equal to 1.5 mg of the HPPs) diethylaminoethyl acetylsalicylate.acetylsalicylic acid salt (P-1, in acetone); 1-piperidinepropyl 2[(2,6-dichlorophenyl)amino]benzene acetate.AcOH (P-2, in water), 1-pyrrolidinepropyl 2-(3-benzoylphenyl) propionate.AcOH (P-3, in water), 4-piperidinemethyl 2-(3-phenoxyphenyl)propionate.AcOH (P-4, in water), 3-piperidinemethyl 2-(ρ-isobutylphenyl) propionate.AcOH (P-5, in water), diethylaminoethyl 1-(p-chlorobenzoyl)-5-methoxy-2-methylindole 3-acetate.AcOH (P-11, in water), 2-(4-morpholinyl)ethyl (Z)-5-fluoro-2-methyl-1-[(4-methylsulfinyl) phenylmethylene]-1H-indene-3-acetate.AcOH (P-12, in water), diethylaminoethyl

[7] = test system: mice; experiment: Analgesic activity, acetic acid writhing; format: in vivo; conditions: 30 min before acetic acid
Experimental: The prodrug compounds are administered either transdermally or orally. The parent compounds are administered orally. The number of writhing that occurred when mice are administered the acetic acid solution are counted, and the rate of inhibition based on the control group which was not pretreated with any test compounds is calculated. […] The A group is the control group.

[8] = test system: rats; experiment: Antipyretic activity, E. coli suspension as pyrogen; format: in vivo; conditions: in °C (unit assumed)
Experimental: Rats are administered with sterilized E. coli suspension as a pyrogen. Each group of rats are administered with a prodrug compounds or parent compounds at a dosage specified below. The prodrug compounds are administered either orally or transdermally. The parent compounds are administered orally.

[9] = test system: rat
Experimental: as §1

[10] = Solubility in water / aqueous solubility of HPPs and parent drugs; conditions: for Solubility in water: product as prepared in Example 1
[11] = test system: Chinese white rabbits; experiment: Malassezia-induced lesions similar to psoriasis; format: in vivo, rabbit; conditions: 5% aqueous solution twice per day, 10 days after application
Description: Heavy suspensions of Malassezia [Rosenberg, E. W., et al., Mycopathologia, 72, 147-154 (1980)] were applied to the shaved skin on the backs of the Chinese white rabbits (n=4×6) twice (at 7 am and 7 pm) per day for 2 weeks, lesions similar to psoriasis resulted.

[12] = test system: Human colon cancer cells (LS174J); experiment: Human colon cancer xenograft in nude mice, topical; conditions: day 30, about 30 μl of 5% solution (1.5 mg) topically applied
Description: Human colon cancer cells (LS174J, 2-3 mm^3 of tumor tissue was used in each mouse) are subcutaneously xenografted into the front leg of nude mice (BALB).

[13] = test system: C57/BL6 mice, MPTP; experiment: MPTP Parkinson's disease mice: GABA and Glu in substantia nigra and striatum; conditions: mouse, in vivo
Experimental: Group A mice were i.p. injected 0.4% sodium carboxymethylcellulos (15 ml/kg per day) for 7 days. Group B and C mice were i.p. injected N-methyl-4-phenyl-1,2,3,6-tetrahydropyridine (MPTP, 30 mg/kg per day) for 7 days. The mice were divided into 2 groups. […] All mice were killed after the last treatment and the brain tissues were quickly frozen at −80° C. […] The contents of GABA and Glu in the striatum and SN were shown by high performance amino acid auto-analyser.

[14] = Distribution of prodrug and metabolites in tissues after application to the back of killed rats; format: in vivo; conditions: Wistar, rat, 50 mg/kg, 3 h after 50 mg/kg prodrug citric acid salt on the back of killed rat, 37° C.
Experimental: The mixture was centrifuged for 5 minutes at 16,000 rpm. The supernatant (2 ml) was collected and evaporated to dryness.

[15] = parent compound administered, hairless mice
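Throughout, for LD50 of HPP: acute toxicity in rats expressed as LD50, determined for both prodrugs and their parent compounds.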
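Throughout, for LD50 of parent drug: acute toxicity in rats expressed as LD50, determined for both prodrugs and their parent compounds.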
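Throughout, for LD50: acute toxicity in rats expressed as LD50, determined for both prodrugs and their parent compounds.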

Nc1c(CC(=O)O)cccc1C(=O)c1ccc(Br)cc1 [Bromofenac, bromofenac]
Peak plasma concentration after parent compound ([1]; mouse, in vivo): 0.1 mg/L | t, time to peak plasma level after parent compound [2]: 1 to 2 h | In vitro penetration rate (apparent flux), parent compounds [3]: 10 μg/cm^2/h

O=C(O)CC(O)c1ccc(-c2ccc(Cl)cc2)o1 (stereo not drawn) [Orpanoxin, orpanoxin]
Peak plasma concentration after parent compound ([1]; mouse, in vivo): 10 mg/L | t, time to peak plasma level after parent compound [2]: 2 to 4 h | In vitro penetration rate (apparent flux), parent compounds [3]: 30 μg/cm^2/h

CN1C(C(=O)Nc2nccs2)=C(O)c2ccccc2S1(=O)=O [Sudoxiam, sudoxiam]
Peak plasma concentration after parent compound ([1]; mouse, in vivo): 0.1 mg/L | t, time to peak plasma level after parent compound [2]: 2 to 4 h | In vitro penetration rate (apparent flux), parent compounds [3]: <1 μg/cm^2/h

CC1=C(CC(=O)O)c2cc(F)ccc2/C1=C\c1ccc([S+](C)[O-])cc1 (stereo not drawn) [Sulindac, sulindac, reference compound]
t, time to peak plasma level after parent compound [1]: 1 to 2 h | Peak plasma concentration after parent compound [1, 15]: 0.1 mg/L | In vitro penetration rate (apparent flux), parent compounds ([4]; 20% suspension in 0.2 M phosphate buffer pH 7.4, human skin, detection limit 1): 10 μg/cm^2/h | LD50 [5]: 260 mg/kg

CC(=O)O.CCN(CC)CCOC(=O)Cc1c(C)n(C(=O)c2ccc(Cl)cc2)c2ccc(OC)cc12 [diethylaminoethyl 1-(p-chlorobenzoyl)-5-methoxy-2-methylindole 3-acetate.AcOH]
Peak plasma concentration of parent compound after prodrug compound ([1]; hairless mice): 20 mg/L | t, time to peak plasma level of parent compound after prodrug compound ([1]; hairless mice): 50 min | In vitro penetration rate (apparent flux), prodrug compounds [4]: 1100 μg/cm^2/h | Tumor size ([6]; day 42, 30 μl of 5% (1.5 mg) topically every 8 hours from day 14, control 800 ± 100): 210 ± 100 mm^3 | Mouse weight ([6]; mouse, in vivo): 21 ± 2 g | % (rate of writhing inhibition) ([7]; 100 mg/kg transdermally): 55% | No. of Writhing ([7]; 100 mg/kg transdermally): 15.6 | body temperature, t = 0 min ([8]; 100 mg/kg transdermally): 37.35 ± 0.06 | body temperature, t = 90 min ([8]; 100 mg/kg transdermally): 36.91 ± 0.05 | body temperature, t = 180 min ([8]; 100 mg/kg transdermally): 36.85 ± 0.08 | body temperature, t = 270 min ([8]; 100 mg/kg transdermally): 36.79 ± 0.07 | LD50 of HPP ([9]; rats): 100 mg/kg | Solubility of HPP ([10]; medium not given): >250 mg/mL

CC(=O)O.CCN(CC)CCOC(=O)Cc1ccc(C(=O)c2ccc(C)cc2)n1C [diethylaminoethyl 1-methyl-5-(4-methylbenzoyl)-1H-pyrrole-2-acetate.AcOH]
Peak plasma concentration of parent compound after prodrug compound ([1]; hairless mice): 20 mg/L | t, time to peak plasma level of parent compound after prodrug compound ([1]; hairless mice): 50 min | lesions similar to psoriasis [11]: the lesions were resolved | In vitro penetration rate (apparent flux), prodrug compounds [4]: 1000 μg/cm^2/h | Mouse weight [12]: 21 ± 2 g | Tumor size [12]: 610 ± 200 mm^3 | % (rate of writhing inhibition) ([7]; 100 mg/kg transdermally): 51% | No. of Writhing ([7]; 100 mg/kg transdermally): 17.1 | body temperature, t = 0 min ([8]; 100 mg/kg transdermally): 37.27 ± 0.06 | body temperature, t = 90 min ([8]; 100 mg/kg transdermally): 36.71 ± 0.05 | body temperature, t = 180 min ([8]; 100 mg/kg transdermally): 36.65 ± 0.08 | body temperature, t = 270 min ([8]; 100 mg/kg transdermally): 36.59 ± 0.07 | LD50 of HPP ([9]; rat, in vivo): 600 mg/kg

CC(=O)O.CCN(CC)CCOC(=O)Cc1ccccc1Nc1c(Cl)cccc1Cl [diethylaminoethyl 2[(2,6-dichlorophenyl)amino]benzene acetate.AcOH]
Peak plasma concentration of parent compound after prodrug compound ([1]; hairless mice): 2100 mg/L | t, time to peak plasma level of parent compound after prodrug compound ([1]; hairless mice): 40 min | In vitro penetration rate (apparent flux), prodrug compounds [4]: 5000 μg/cm^2/h | % (rate of writhing inhibition) ([7]; 10 mg/kg orally): 64.6% | No. of Writhing ([7]; 10 mg/kg orally): 12.1 | % (rate of writhing inhibition) ([7]; 10 mg/kg transdermally): 69.9% | No. of Writhing ([7]; 10 mg/kg transdermally): 10.3 | % (rate of writhing inhibition) ([7]; 20 mg/kg orally): 73.1% | No. of Writhing ([7]; 20 mg/kg orally): 9.2 | % (rate of writhing inhibition) ([7]; 20 mg/kg transdermally): 74.3% | No. of Writhing ([7]; 20 mg/kg transdermally): 8.8 | body temperature, t = 0 min ([8]; 10 mg/kg orally): 37.52 ± 0.07 | body temperature, t = 90 min ([8]; 10 mg/kg orally): 36.50 ± 0.06 | body temperature, t = 180 min ([8]; 10 mg/kg orally): 36.60 ± 0.05 | body temperature, t = 270 min ([8]; 10 mg/kg orally): 36.55 ± 0.08 | body temperature, t = 0 min ([8]; 10 mg/kg transdermally): 37.58 ± 0.06 | body temperature, t = 90 min ([8]; 10 mg/kg transdermally): 36.30 ± 0.06 | body temperature, t = 180 min ([8]; 10 mg/kg transdermally): 36.35 ± 0.08 | body temperature, t = 270 min ([8]; 10 mg/kg transdermally): 36.31 ± 0.07 | body temperature, t = 0 min ([8]; 20 mg/kg orally): 37.54 ± 0.08 | body temperature, t = 90 min ([8]; 20 mg/kg orally): 36.30 ± 0.05 | body temperature, t = 180 min ([8]; 20 mg/kg orally): 36.35 ± 0.07 | body temperature, t = 270 min ([8]; 20 mg/kg orally): 36.38 ± 0.08 | body temperature, t = 0 min ([8]; 20 mg/kg transdermally): 37.59 ± 0.05 | body temperature, t = 90 min ([8]; 20 mg/kg transdermally): 36.25 ± 0.05 | body temperature, t = 180 min ([8]; 20 mg/kg transdermally): 36.30 ± 0.07 | body temperature, t = 270 min ([8]; 20 mg/kg transdermally): 36.20 ± 0.05 | LD50 of HPP ([9]; rat, in vivo): 800 mg/kg | Solubility of HPP ([10]; in water): >300 mg/mL | Solubility in water [10]: 400 mg/mL

CC(=O)O.CCN(CC)CCOC(=O)Cc1cc(C)c(C(=O)c2ccc(Cl)cc2)n1C [diethylaminoethyl 5-(4-Chlorobenzoyl)-1,4-dimethyl-1H-pyrrole-2-acetate.AcOH]
Peak plasma concentration of parent compound after prodrug compound ([1]; hairless mice): 20 mg/L | t, time to peak plasma level of parent compound after prodrug compound ([1]; hairless mice): 50 min | lesions similar to psoriasis [11]: the lesions were resolved | In vitro penetration rate (apparent flux), prodrug compounds [4]: 1200 μg/cm^2/h | % (rate of writhing inhibition) ([7]; 100 mg/kg transdermally): 55% | No. of Writhing ([7]; 100 mg/kg transdermally): 15.6 | body temperature, t = 0 min ([8]; 100 mg/kg transdermally): 37.21 ± 0.07 | body temperature, t = 90 min ([8]; 100 mg/kg transdermally): 36.82 ± 0.06 | body temperature, t = 180 min ([8]; 100 mg/kg transdermally): 36.70 ± 0.05 | body temperature, t = 270 min ([8]; 100 mg/kg transdermally): 36.70 ± 0.08 | LD50 of HPP ([9]; rat, in vivo): 200 mg/kg

CC(=O)O.CCN(CC)CCOC(=O)C(C)c1ccc2c(c1)[nH]c1ccc(Cl)cc12 (stereo not drawn) [diethylaminoethyl 6-chloro-α-methyl-9H-carbazole-2-acetate.AcOH]
Peak plasma concentration of parent compound after prodrug compound ([1]; hairless mice): 2000 mg/L | t, time to peak plasma level of parent compound after prodrug compound ([1]; hairless mice): 50 min | In vitro penetration rate (apparent flux), prodrug compounds [4]: 4000 μg/cm^2/h | % (rate of writhing inhibition) ([7]; 100 mg/kg transdermally): 59% | No. of Writhing ([7]; 100 mg/kg transdermally): 14.2 | body temperature, t = 0 min ([8]; 100 mg/kg transdermally): 37.28 ± 0.06 | body temperature, t = 90 min ([8]; 100 mg/kg transdermally): 36.68 ± 0.05 | body temperature, t = 180 min ([8]; 100 mg/kg transdermally): 36.62 ± 0.08 | body temperature, t = 270 min ([8]; 100 mg/kg transdermally): 36.58 ± 0.07 | LD50 of HPP ([9]; rats): 700 mg/kg | Solubility of HPP ([10]; medium not given): >350 mg/mL | Solubility in water [10]: 400 mg/mL

NC(=O)C[S+]([O-])C(c1ccccc1)c1ccccc1 (stereo not drawn) [modafinil, reference compound]
increase of nigrostriatal Glu release induced by MPTP [13]: did not change

O=C(O)c1ccccc1O [salicylic acid]
concentration at 3 h ([14]; read-out: amount in Bone): 35000 ± 6000 ng/g | concentration at 3 h ([14]; read-out: amount in Brain): 30000 ± 6000 ng/g | concentration at 3 h ([14]; read-out: amount in Liver): 45000 ± 8000 ng/g | concentration at 3 h ([14]; read-out: amount in Plasma): 65 ± 10 µg/mL | t, time to peak plasma level after parent compound [1]: 1 to 2 h | Peak plasma concentration after parent compound [1, 15]: 0.1 mg/L | In vitro penetration rate (apparent flux), parent compounds ([3]; human, 20 %): <1 μg/cm^2/h | solubility ([10]; water): 0.1 mg/mL (≈ 724 µM)

salicylsalicylic acid [Salsalate, reference compound]
Peak plasma concentration after parent compound ([1]; mouse, in vivo): 0.1 mg/L | t, time to peak plasma level after parent compound [2]: 1 to 2 h | In vitro penetration rate (apparent flux), parent compounds [3]: <1 μg/cm^2/h | LD50 of parent drug ([9]; rats): 1500 mg/kg
